Results taken from US9993494B2, “Compositions and methods for treating fibrotic disease” (eFFECTOR Therapeutics, Inc., priority 2014, dated 2018).

Key:
[1] = test system: normal human lung fibroblasts; test: Procollagen Type 1 C-Peptide (PIPC) EIA in culture media of TGFβ-treated fibroblasts; assay type: cell-based; settings: for % Renormalization Collagen: fibroblasts treated with TGFβ, procollagen ELISA
Procedure: (§1) Briefly, normal human lung fibroblasts (Lonza #CC-2512; cell passage numbers 2 through 5 were used for all experiments) were seeded (Day 0) and cultured in Dulbecco's modified Eagle medium (DMEM) supplemented with 10% fetal bovine serum (FBS), penicillin, streptomycin and glutamax (Invitrogen) at 37° C. in a humidified incubator with 5% CO2 overnight. On Day 1, cells were harvested, washed with phosphate buffered saline (PBS), and then incubated for 48 hours in fresh serum-free DMEM supplemented with penicillin, streptomycin, and glutamax.
(§2) After this 24 hour incubation, procollagen type 1 levels were measured by collecting culture media, centrifuging to pellet cellular debris, and stored at −80° C. Procollagen Type 1 C-Peptide (PIPC) was quantified using the (PIP) EIA kit (Clontech, Cat. No. MK101) according to manufacturer's instructions. The TGFβ-treated fibroblasts of this example were examined by ribosomal profiling (about 6×10^6 cells/10 cm plate) and western blot analysis (about 1×10^6 cells/well of a 6-well plate).
as §1, with “(Lonza;” for “(Lonza #CC-2512;”, “CO2 conditions” for “CO2”, “glutamax. On Day 3, cells were harvested, resuspended in fresh serum-free DMEM containing silvestrol (1, 5, 10, 75, 100, 500, or 1000 nM) and 10 ng/ml TGFβ, and cultured for 24 hours. Controls included untreated cells and cells treated with only TGFβ.” for “glutamax.”
as §2, with “kit (Clontech)” for “kit (Clontech, Cat. No. MK101)”, “example are” for “example were”
The levels of α-SMA and procollagen type 1, markers of fibroblast transdifferentiation into myofibroblasts and a surrogate for fibrotic disease progression, were measured after a 24 hour incubation of fibroblasts in the presence or absence of TGFβ sieIF4A1 or siCont. The knockdown efficiency was determined by quantitating the eIF4A mRNA level by qPCR (data not shown) and assessing the protein level by western analysis (see FIG. 11).

[2] = test system: normal human lung fibroblasts; test: Western blot of α-smooth muscle actin (α-SMA) in TGFβ-treated fibroblasts; assay type: cell-based; settings: for TGFβ-induced α-SMA protein level / % Renormalization α-SMA: western blot; for % Renormalization α-SMA: fibroblasts treated with TGFβ
Procedure: as §1, §2
(§3) TGFβ-dependent activation of the PI3K/Akt/mTOR and ERK pathways were also examined by western blot analysis (about 1×10^6 cells/well from a 6-well plate). Briefly, cells were washed with PBS and lysed in 1× cell lysis buffer (Cell Signaling Technology, Inc., Danvers, Mass.) for 15 minutes at 4° C. Lysates were briefly sonicated, clarified by centrifugation for 15 minutes at 14,000 rpm, and then supernatants were collected. Protein concentration in the soluble fraction was determined by BCA protein assay (Thermo Scientific, Rockford, Ill.). Samples of protein (20 μg) were resolved on 4-20% Bis-Tris gradient gel (Invitrogen, Carlsbad, Calif.) and transferred to nitrocellulose membrane. The resulting blots were blocked for 1 hour at room temperature with Odyssey blocking solution (LI-COR) and then incubated with primary antibodies at 4° C. overnight. The following day, each blot was washed three times for 10 minutes in TBST, and then incubated with goat anti-rabbit fluorescent conjugated secondary antibody (IRDye 800 CW at 1:20,000; LI-COR) for 1 hour at room temperature. The blots were washed and scanned, and then specific proteins were detected by using the LI-COR Odyssey infrared imager. The following antibodies were used at 1:1000 dilution: anti-α-actin (Sigma #A2547), anti-phospho-4EBP(Ser65), anti-phospho-rpS6(Ser235/236)(#4858), anti-phospho-ERK1/2(Thr202/Tyr204)(#4370), anti-phospho-p70S6K(Thr421/Ser424)(#9204), anti-phospho-pAKT(Ser473), anti-phospho-MNK(Thr197/202), and anti-β-actin (#4970). Unless otherwise indicated, the antibodies were from Cell Signaling Technology, Inc. (Danvers, Mass.).
as §1, with “(Lonza;” for “(Lonza #CC-2512;”, “CO2 conditions” for “CO2”, “glutamax. On Day 3, cells were harvested, resuspended in fresh serum-free DMEM containing silvestrol (1, 5, 10, 75, 100, 500, or 1000 nM) and 10 ng/ml TGFβ, and cultured for 24 hours. Controls included untreated cells and cells treated with only TGFβ.” for “glutamax.”
as §2, with “kit (Clontech)” for “kit (Clontech, Cat. No. MK101)”, “example are” for “example were”

[3] = test system: AKT, 4EBP, S6K, and S6 of the mTOR pathway; test: Western blot of TGFβ-dependent phosphorylation of PI3K/Akt/mTOR and ERK pathway proteins; assay type: cell-based, human; settings: PP242 0.625 μM, co-incubation with TGFβ, FIG. 2
Procedure: as §3, with “The following antibodies were used at 1:1000 dilution: anti-α-actin (Sigma #A2547), anti-phospho-4EBP(Ser65), anti-phospho-rpS6(Ser235/236)(#4858), anti-phospho-ERK1/2(Thr202/Tyr204)(#4370), anti-phospho-p70S6K(Thr421/Ser424)(#9204), anti-phospho-pAKT(Ser473), anti-phospho-MNK(Thr197/202), and anti-β-actin (#4970). Unless otherwise indicated, the antibodies were from Cell Signaling Technology, Inc. (Danvers, Mass.).” left out

Row | SMILES | EC50 ([1]; Homo sapiens, Fibroblast, 24 h, read-out: EC50 for blocking the TGFβ-induced increase in procollagen production) [nM] | % Renormalization Collagen ([1]; 24 hours) | extent of inhibition of procollagen at higher concentrations, of untreated TGFβ-transformed myofibroblasts ([1]; higher concentrations, saturable, 10 ng/ml TGFβ, 24 hours) | inhibition of procollagen relative to untreated, untransformed control fibroblasts ([1]; higher concentrations, 10 ng/ml TGFβ, 24 hours) | ratio of α-SMA to β-actin at higher silvestrol concentrations ([2]; 10 ng/ml TGFβ, 24 hours, FIG. 10) | TGFβ-induced α-SMA protein level ([2]; 10 ng/ml TGFβ, 24 hours) | EC50 ([2]; Homo sapiens, Fibroblast, 24 h, read-out: EC50 for reduction of the α-SMA protein level) [nM] | % Renormalization α-SMA ([2]; 24 hours) | α-SMA level ([2]; PP242 0.625 μM, co-incubation with TGFβ, FIG. 2) | TGFβ-dependent increases in phosphorylation of AKT, 4EBP, S6K, and S6 [3]
1 | COC(=O)[C@H]1[C@@H](O)[C@@]2(O)c3c(OC)cc(O[C@@H]4O[C@@H]([C@H](O)CO)CO[C@H]4OC)cc3O[C@@]2(c2ccc(OC)cc2)[C@@H]1c1ccccc1 [Silvestrol] | ~12 | +++ (+++ = >60%) | about 90% | about 80% | the same as in untransformed, untreated fibroblasts | reduction of the α-SMA protein level in a dose dependent manner | ~11 | +++ (+++ = >60%) |  | 
2 | CC(C)n1nc(-c2cc3cc(O)ccc3[nH]2)c2c(N)ncnc21 [PP242] |  | +++ (+++ = >60%) |  |  |  | reduction of the α-SMA protein level in a dose dependent manner |  | +++ (+++ = >60%) | decrease in α-SMA to pretreatment levels | sufficient to abolish
3 | CC(C=CC(=O)NO)=CC(C)C(=O)c1ccc(N(C)C)cc1 (stereo not shown) [TSA, 7-[4-(dimethylamino)phenyl]-N-hydroxy-4,6-dimethyl-7-oxohepta-2,4-dienamide] |  | +++ (+++ = >60%) |  |  |  |  |  | ++ (++ = 30-60%) |  | 
4 | Cc1cc(C2CCCCC2)n(O)c(=O)c1.NCCO [CPX, ciclopirox oloamine] |  | +++ (+++ = >60%) |  |  |  |  |  | +++ (+++ = >60%) |  | 
5 | Cc1ccc(=O)n(-c2ccccc2)c1 [pirfenidone, 5-methyl-1-phenylpyridin-2-one] |  | +++ (+++ = >60%) |  |  |  |  |  | +++ (+++ = >60%) |  | 
